Results: patent US10597388B2, “Pyridazinone herbicides” (FMC CORPORATION, priority 2014, dated 2020)

Assays:
Assay type in all cases: in vivo
[1] = test system: sedge, umbrella (small-flower umbrella sedge, Cyperus difformis); assay: Test B flooded paddy test; conditions: 250 g ai/ha, Flood; visual rating on scale of 0 to 100 where 0 is no effect and 100 is complete control; 13 to 15 d after treatment
Outline: (§1)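 Plants at the 2-leaf stage were flooded to 3 cm above soil, and test compounds were applied directly into the paddy water, which was held at that depth throughout. After 13 to 15 d in a greenhouse, injury was rated visually against untreated controls on a 0–100 scale (0 no effect, 100 complete control).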

[2] = test system: ducksalad (Heteranthera limosa); assay: Test B flooded paddy test; conditions: 250 g ai/ha, Flood; visual rating on scale of 0 to 100 where 0 is no effect and 100 is complete control; 13 to 15 d after treatment
Outline: as §1

rice (Oryza sativa) = assay: Test B flooded paddy test; conditions: 250 g ai/ha, Flood; visual rating on scale of 0 to 100 where 0 is no effect and 100 is complete control; 13 to 15 d after treatment
Outline: as §1

[3] = test system: barnyardgrass (Echinochloa crus-galli); assay: Test B flooded paddy test; conditions: 250 g ai/ha, Flood; visual rating on scale of 0 to 100 where 0 is no effect and 100 is complete control; 13 to 15 d after treatment
Outline: as §1

[4] = test system: ragweed (common ragweed, Ambrosia elatior); assay: Test A greenhouse herbicide test, pre- and postemergence
Description: (§2) Seeds of plant species selected from barnyardgrass (Echinochloa crus-galli), kochia (Kochia scoparia), ragweed (common ragweed, Ambrosia elatior), ryegrass, Italian (Italian ryegrass, Lolium multiflorum), crabgrass, large (large crabgrass, Digitaria sanguinalis), foxtail, giant (giant foxtail, Setaria faberii), momingglory (Ipomoea spp.), pigweed (Amaranthus retroflexus), velvetleaf (Abutilon theophrasti), wheat (Triticum aestivum), and corn (Zea mays) were planted into a blend of loam soil and sand and treated preemergence with a directed soil spray using test chemicals formulated in a non-phytotoxic solvent mixture which included a surfactant.
(§3) At the same time, plants selected from these crop and weed species and also blackgrass (Alopecurus myosuroides), and galium (catchweed bedstraw, Galium aparine) were planted in pots containing the same blend of loam soil and sand and treated with postemergence applications of test chemicals formulated in the same manner. Plants ranged in height from 2 to 10 cm and were in the one- to two-leaf stage for the postemergence treatment. Treated plants and untreated controls were maintained in a greenhouse for approximately 10 d, after which time all treated plants were compared to untreated controls and visually evaluated for injury. Plant response ratings, summarized in Table A, are based on a 0 to 100 scale where 0 is no effect and 100 is complete control. A dash (-) response means no test result.

[5] = test system: foxtail, giant (giant foxtail, Setaria faberii); assay: as above
Description: as §2, §3

[6] = test system: wheat (Triticum aestivum); assay: as above; conditions: Postemergence
Description: as §2, §3

corn (Zea mays) = assay: as above; conditions: Postemergence
Description: as §2, §3

kochia (Kochia scoparia) = assay: as above
Description: as §2, §3

[7] = test system: pigweed (Amaranthus retroflexus); assay: as above
Description: as §2, §3

[8] = test system: ryegrass, Italian (Italian ryegrass, Lolium multiflorum); assay: as above
Description: as §2, §3

[9] = test system: barnyardgrass (Echinochloa crus-galli); assay: as above
Description: as §2, §3

[10] = test system: galium (catchweed bedstraw, Galium aparine); assay: Test A greenhouse herbicide test, postemergence
Outline: (§4)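 Greenhouse postemergence test: formulated chemicals sprayed on one- to two-leaf plants (2 to 10 cm), grown in loam soil blended with sand. Injury assessed visually about 10 d later against untreated controls, scored 0 (no effect) to 100 (complete control).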

[11] = test system: blackgrass (Alopecurus myosuroides); assay: Test A greenhouse herbicide test, postemergence
Outline: as §4

[12] = Postemergence, 125 g ai/ha, 0 to 100 scale where 0 is no effect and 100 is complete control
[13] = Postemergence, 500 g ai/ha, visual rating after approx. 10 d, 0 to 100 scale (0 no effect, 100 complete control)
[14] = Preemergence, 125 g ai/ha, 0 to 100 scale where 0 is no effect and 100 is complete control
[15] = Preemergence, 500 g ai/ha, 0 to 100 scale where 0 is no effect and 100 is complete control
[16] = 125 g ai/ha, 0 to 100 scale where 0 is no effect and 100 is complete control
[17] = 500 g ai/ha, visual rating after approx. 10 d, 0 to 100 scale (0 no effect, 100 complete control)

| SMILES | Plant response rating, Sedge, Umbrella [1] | Plant response rating, Ducksalad [2] | Plant response rating, Rice (rice (Oryza sativa)) | Plant response rating, Barnyardgrass [3] | Plant response rating, Ragweed [4, 12] | Plant response rating, Ragweed [4, 13] | Plant response rating, Ragweed [4, 15] | Plant response rating, Foxtail, Giant [5, 12] | Plant response rating, Foxtail, Giant [5, 13] | Foxtail, Giant plant response rating [5, 14] | Plant response rating, Foxtail, Giant [5, 15] | Plant response rating, Wheat [6, 16] | Plant response rating, Wheat [6, 17] | Plant response rating, Corn (corn (Zea mays); [16]) | Plant response rating, Corn (corn (Zea mays); [17]) | Plant response rating, Kochia (kochia (Kochia scoparia); [12]) | Plant response rating, Kochia (kochia (Kochia scoparia); [13]) | Kochia plant response rating (kochia (Kochia scoparia); [14]) | Plant response rating, Kochia (kochia (Kochia scoparia); [15]) | Plant response rating, Pigweed [7, 12] | other results |
| --- | --- | --- | --- | --- | --- | --- | --- | --- | --- | --- | --- | --- | --- | --- | --- | --- | --- | --- | --- | --- | --- |
| CCc1ccc2ccc(C)cc2c1-c1c(O)c(C)nn(C)c1=O [Compound 103] | 50 | 0 | 0 | 30 | 100 | 100 | 100 | 90 | 90 | 80 | 100 | 0 | 20 | 20 | 60 | 50 | 90 | 20 | 40 | 90 | Ragweed plant response rating [4, 14]: 90; Plant response rating, Pigweed [7, 13]: 100; Pigweed plant response rating [7, 14]: 100; Plant response rating, Pigweed [7, 15]: 100; Plant response rating, Ryegrass, Italian [8, 12]: 100; Plant response rating, Ryegrass, Italian [8, 13]: 100; Ryegrass, Italian plant response rating [8, 14]: 90; Plant response rating, Ryegrass, Italian [8, 15]: 100; Plant response rating, Barnyardgrass [9, 12]: 40; Barnyardgrass plant response rating ([9]; Postemergence, 500 g ai/ha, 0 to 100 scale, 0 is no effect, 100 is complete control): 90; Barnyardgrass plant response rating [9, 14]: 40; Plant response rating, Barnyardgrass [9, 15]: 90; Plant response rating, Galium [10, 16]: 100; Plant response rating, Galium [10, 17]: 100; Plant response rating, Blackgrass [11, 16]: 70; Blackgrass plant response rating ([11]; 500 g ai/ha, 0 to 100 scale, 0 is no effect, 100 is complete control): 90 |
| CCc1nn(C)c(=O)c(-c2c(C)oc3ccccc23)c1O [Compound 117] | 0 | 0 | 0 | 0 | 0 | 0 | 0 | 0 | 20 | 0 | 30 | 0 | 0 | 0 | 0 | 0 | 10 | 0 | 0 | 0 | Ragweed plant response rating [4, 14]: 0; Plant response rating, Pigweed [7, 13]: 20; Pigweed plant response rating [7, 14]: 0; Plant response rating, Pigweed [7, 15]: 30; Plant response rating, Ryegrass, Italian [8, 12]: 0; Plant response rating, Ryegrass, Italian [8, 13]: 0; Ryegrass, Italian plant response rating [8, 14]: 0; Plant response rating, Ryegrass, Italian [8, 15]: 0; Plant response rating, Barnyardgrass [9, 12]: 0; Plant response rating, Barnyardgrass [9, 13]: 40; Barnyardgrass plant response rating [9, 14]: 0; Plant response rating, Barnyardgrass [9, 15]: 50; Plant response rating, Galium [10, 16]: 0; Plant response rating, Galium [10, 17]: 0; Plant response rating, Blackgrass [11, 16]: 0; Plant response rating, Blackgrass [11, 17]: 0 |
| CC(=O)Oc1ccc2cccc(-c3c(OC(C)=O)c(C)nn(C)c3=O)c2c1 [Compound 124] | 0 | 0 | 0 | 0 | 0 | 0 | 0 | 0 | 0 | 0 | 0 | 0 | 0 | 0 | 0 | 0 | 0 | 0 | 20 | 0 | Ragweed plant response rating [4, 14]: 0; Plant response rating, Pigweed [7, 13]: 0; Pigweed plant response rating [7, 14]: 0; Plant response rating, Pigweed [7, 15]: 0; Plant response rating, Ryegrass, Italian [8, 12]: 0; Plant response rating, Ryegrass, Italian [8, 13]: 0; Ryegrass, Italian plant response rating [8, 14]: 0; Plant response rating, Ryegrass, Italian [8, 15]: 30; Plant response rating, Barnyardgrass [9, 12]: 20; Plant response rating, Barnyardgrass [9, 13]: 30; Barnyardgrass plant response rating [9, 14]: 0; Plant response rating, Barnyardgrass [9, 15]: 0; Plant response rating, Galium [10, 16]: 0; Plant response rating, Galium [10, 17]: 30; Plant response rating, Blackgrass [11, 16]: 0; Plant response rating, Blackgrass [11, 17]: 0 |
| COc1nn(C)c(=O)c(-c2c(C)sc3ccc(Cl)cc23)c1OS(C)(=O)=O [Compound 135] | 0 | 0 | 0 | 0 | 30 | 60 | 60 | 0 | 0 | 20 | 30 | 0 | 0 | 0 | 20 | 0 | 0 | 0 | 0 | 0 | Ragweed plant response rating [4, 14]: 30; Plant response rating, Pigweed [7, 13]: 20; Pigweed plant response rating [7, 14]: 30; Plant response rating, Pigweed [7, 15]: 70; Plant response rating, Ryegrass, Italian [8, 12]: 40; Plant response rating, Ryegrass, Italian [8, 13]: 70; Ryegrass, Italian plant response rating [8, 14]: 20; Plant response rating, Ryegrass, Italian [8, 15]: 60; Plant response rating, Barnyardgrass [9, 12]: 0; Plant response rating, Barnyardgrass [9, 13]: 0; Barnyardgrass plant response rating [9, 14]: 0; Plant response rating, Barnyardgrass [9, 15]: 0; Plant response rating, Galium [10, 16]: 60; Plant response rating, Galium [10, 17]: 90; Plant response rating, Blackgrass [11, 16]: 0; Plant response rating, Blackgrass [11, 17]: 30 |
| CCOC(=O)Oc1c(C)nn(C)c(=O)c1-c1c(C(F)(F)F)ccc2ccccc12 [Compound 146] | 0 | 0 | 0 | 0 | 90 | 100 | 80 | 10 | 70 | 0 | 50 | 0 | 70 | 0 | 30 | 70 | 100 | 20 | 70 | 90 | Plant response rating, Pigweed [7, 13]: 90; Pigweed plant response rating [7, 14]: 100; Plant response rating, Pigweed [7, 15]: 100; Plant response rating, Ryegrass, Italian [8, 12]: 70; Plant response rating, Ryegrass, Italian [8, 13]: 100; Plant response rating, Ryegrass, Italian [8, 15]: 80; Plant response rating, Barnyardgrass [9, 12]: 0; Plant response rating, Barnyardgrass [9, 13]: 30; Barnyardgrass plant response rating [9, 14]: 0; Plant response rating, Barnyardgrass [9, 15]: 50; Plant response rating, Galium [10, 16]: 80; Plant response rating, Galium [10, 17]: 90; Plant response rating, Blackgrass [11, 16]: 20; Plant response rating, Blackgrass [11, 17]: 70 |
